Laboratory results: ChEMBL document CHEMBL1201862, “PubChem BioAssay data set” (2004)
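Growth conditions: 96-well plates. Treatment: test compound, 48 hours, 5 concentrations. Analysis: linear interpolation between bracketing concentrations; unreached endpoints set to highest concentration. At the GI50, growth is halved.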 The source made the active and inactive calls. Cut-off read from the data, not from the text of the source: active = GI50 up to about 1.1 µM and inactive = higher.

Columns and labels:
Test in all cases: growth of human tumour cells (NCI), 48 h
[1] = system: DLD-1
[2] = system: DU-145
[3] = system: HCT-116
[4] = system: HOP-92
[5] = system: Hs-578T
[6] = system: KM-20L2
[7] = system: M19-MEL
[8] = system: MDA-MB-231
[9] = system: MDA-MB-435
[10] = system: NCI-H226
[11] = system: NCI-H460
[12] = system: NCI/ADR-RES
[13] = system: PC-3
[14] = system: SF-295
[15] = system: SF-539
[16] = system: SK-MEL-28
[17] = system: SNB-78
[18] = system: SR
[19] = system: U-251
[20] = system: XF498

Measured: GI50

CCCCCCCCCCCCOCCCOP(=O)([O-])OCC[N+](C)(C)C
inactive: [1] 27.9 µM | [2] 34.3 µM | [3] 26.4 µM | [4] 19.4 µM | [5] 22.4 µM | [6] 17 µM | [7] 28.2 µM | [8] 11.3 µM | [9] 23.9 µM | [10] 24.3 µM | [11] 13.9 µM | [12] > 81.1 µM | [13] 2.18 µM | [14] 35.5 µM | [15] 31.2 µM | [16] 58.5 µM | [17] 25.2 µM | [18] 11.9 µM | [19] 16.1 µM | [20] 37.7 µM
